Among the data in ChEMBL document CHEMBL3991601, “The target landscape of clinical kinase drugs” (Science, 2017) are Kd values, retold here.

Experiment [1] has as its target T1, Beta-adrenergic receptor kinase 1 (Homo sapiens, UniProt P25098).
T1 sequence (P25098 whole entry): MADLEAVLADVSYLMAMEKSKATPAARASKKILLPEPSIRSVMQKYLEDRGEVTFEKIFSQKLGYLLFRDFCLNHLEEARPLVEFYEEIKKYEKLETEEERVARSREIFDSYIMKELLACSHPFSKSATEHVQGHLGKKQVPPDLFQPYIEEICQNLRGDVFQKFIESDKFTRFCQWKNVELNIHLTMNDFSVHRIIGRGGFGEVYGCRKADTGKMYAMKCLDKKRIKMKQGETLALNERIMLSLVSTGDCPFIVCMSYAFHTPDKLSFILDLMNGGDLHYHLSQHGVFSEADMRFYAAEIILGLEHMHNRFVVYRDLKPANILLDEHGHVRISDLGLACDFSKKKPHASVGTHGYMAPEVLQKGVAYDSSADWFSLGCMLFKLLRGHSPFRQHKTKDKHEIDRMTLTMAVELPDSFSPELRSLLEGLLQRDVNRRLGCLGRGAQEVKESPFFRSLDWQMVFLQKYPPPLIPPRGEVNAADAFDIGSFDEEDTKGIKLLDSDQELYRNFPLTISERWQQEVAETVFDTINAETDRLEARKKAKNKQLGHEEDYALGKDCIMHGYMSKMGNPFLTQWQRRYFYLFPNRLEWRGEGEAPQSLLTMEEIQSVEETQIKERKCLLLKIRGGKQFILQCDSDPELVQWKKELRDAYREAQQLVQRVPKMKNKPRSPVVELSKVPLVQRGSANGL

Experiment [2] addresses T2, Serine/threonine-protein kinase Chk1 (Homo sapiens, UniProt O14757).
T2 sequence (O14757 whole entry): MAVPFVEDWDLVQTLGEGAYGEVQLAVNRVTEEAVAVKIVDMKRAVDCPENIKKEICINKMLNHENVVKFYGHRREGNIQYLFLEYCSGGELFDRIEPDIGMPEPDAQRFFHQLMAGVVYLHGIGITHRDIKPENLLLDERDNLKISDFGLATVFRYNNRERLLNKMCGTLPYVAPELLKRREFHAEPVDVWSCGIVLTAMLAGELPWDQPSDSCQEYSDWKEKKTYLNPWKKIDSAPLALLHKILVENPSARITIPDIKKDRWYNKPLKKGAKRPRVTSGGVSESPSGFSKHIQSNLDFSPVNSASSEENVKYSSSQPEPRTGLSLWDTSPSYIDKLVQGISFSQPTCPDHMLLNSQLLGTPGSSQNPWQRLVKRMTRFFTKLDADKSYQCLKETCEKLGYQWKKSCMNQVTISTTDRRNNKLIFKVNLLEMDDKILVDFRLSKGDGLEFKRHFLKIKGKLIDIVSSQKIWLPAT

Experiment [3] concerns the target T3, Probable ATP-dependent RNA helicase DDX6 (Homo sapiens, UniProt P26196).
T3 sequence (P26196 whole entry): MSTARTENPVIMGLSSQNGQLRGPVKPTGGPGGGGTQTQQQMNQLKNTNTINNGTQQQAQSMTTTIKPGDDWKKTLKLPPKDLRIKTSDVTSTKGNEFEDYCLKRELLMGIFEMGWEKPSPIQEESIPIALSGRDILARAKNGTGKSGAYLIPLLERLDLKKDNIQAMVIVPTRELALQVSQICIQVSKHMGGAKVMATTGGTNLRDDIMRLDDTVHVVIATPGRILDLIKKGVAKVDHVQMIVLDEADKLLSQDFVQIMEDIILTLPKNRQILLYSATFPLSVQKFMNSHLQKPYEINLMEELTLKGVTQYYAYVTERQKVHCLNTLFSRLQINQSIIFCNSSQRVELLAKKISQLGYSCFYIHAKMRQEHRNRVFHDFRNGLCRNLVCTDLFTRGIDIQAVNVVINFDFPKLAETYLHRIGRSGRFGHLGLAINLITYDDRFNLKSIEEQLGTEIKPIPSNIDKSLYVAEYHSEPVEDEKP

In a further experiment the target is Obg-like ATPase 1 (Homo sapiens, UniProt Q9NTK5).
Experiment [4] deals with T4, Serine/threonine-protein kinase PLK4 (Homo sapiens, UniProt O00444).
T4 sequence (O00444 whole entry): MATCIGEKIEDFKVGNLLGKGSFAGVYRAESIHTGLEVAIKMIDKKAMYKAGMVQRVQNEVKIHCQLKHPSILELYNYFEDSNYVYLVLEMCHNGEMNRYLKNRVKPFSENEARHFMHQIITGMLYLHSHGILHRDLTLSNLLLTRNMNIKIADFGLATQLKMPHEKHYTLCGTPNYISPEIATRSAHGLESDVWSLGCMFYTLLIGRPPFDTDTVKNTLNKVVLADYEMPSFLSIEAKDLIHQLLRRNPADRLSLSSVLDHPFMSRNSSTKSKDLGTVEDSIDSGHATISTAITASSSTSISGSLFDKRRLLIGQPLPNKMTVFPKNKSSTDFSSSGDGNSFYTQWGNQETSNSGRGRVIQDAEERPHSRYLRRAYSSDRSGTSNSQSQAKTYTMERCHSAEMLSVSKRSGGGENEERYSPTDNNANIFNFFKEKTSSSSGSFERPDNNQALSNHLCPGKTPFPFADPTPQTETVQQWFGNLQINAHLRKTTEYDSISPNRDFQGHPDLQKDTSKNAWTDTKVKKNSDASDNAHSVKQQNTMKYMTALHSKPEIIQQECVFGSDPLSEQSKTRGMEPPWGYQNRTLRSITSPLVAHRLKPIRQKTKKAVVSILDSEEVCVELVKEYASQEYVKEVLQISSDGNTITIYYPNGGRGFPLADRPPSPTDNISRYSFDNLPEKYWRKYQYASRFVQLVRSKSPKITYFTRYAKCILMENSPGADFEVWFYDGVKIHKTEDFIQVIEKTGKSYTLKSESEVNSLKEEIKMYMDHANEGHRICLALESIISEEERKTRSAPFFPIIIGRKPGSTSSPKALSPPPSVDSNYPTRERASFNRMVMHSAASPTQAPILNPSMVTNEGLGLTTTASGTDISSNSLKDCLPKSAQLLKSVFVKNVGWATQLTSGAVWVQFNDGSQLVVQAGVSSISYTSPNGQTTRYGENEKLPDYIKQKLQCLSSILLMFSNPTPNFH

Calls of active or inactive are those of the source. Bounds are passed on as bounds.
Further: in the data inactive means no Kd found up to 30 µM.

Obg-like ATPase 1, sequence (Q9NTK5 whole entry, looked up): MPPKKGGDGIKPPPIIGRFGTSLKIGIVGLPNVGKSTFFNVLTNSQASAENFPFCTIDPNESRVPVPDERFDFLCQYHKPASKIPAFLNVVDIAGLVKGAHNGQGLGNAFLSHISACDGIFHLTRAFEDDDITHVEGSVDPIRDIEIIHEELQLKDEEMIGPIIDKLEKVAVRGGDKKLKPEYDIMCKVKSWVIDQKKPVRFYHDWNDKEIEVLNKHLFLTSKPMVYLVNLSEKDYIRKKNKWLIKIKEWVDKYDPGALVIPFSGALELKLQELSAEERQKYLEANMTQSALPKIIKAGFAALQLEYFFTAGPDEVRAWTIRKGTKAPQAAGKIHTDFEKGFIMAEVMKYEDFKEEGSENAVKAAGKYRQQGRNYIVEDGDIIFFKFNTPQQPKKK

`S=C(NCc1ccc2c(c1)OCO2)N1CCN(c2ncnc3c2oc2ccccc23)CC1` [AMUVATINIB]: the Kd (in experiment [1]; in experiment [2]; in experiment [3]; on Obg-like ATPase 1; in experiment [4]) was > 30 µM (inactive) throughout.
Regarding `COc1cccc2cc(-c3nc([C@H]4CC[C@H](C(=O)O)CC4)n4ncnc(N)c34)[nH]c12` [OSI-027], the Kd (in experiment [1]; in experiment [2]; in experiment [3]; on Obg-like ATPase 1; in experiment [4]) was > 30 µM (inactive) throughout.
`c1cc(OCCN2CCCCC2)cc(-c2n[nH]c3ccc(-c4nc[nH]n4)cc23)c1` [CC-401]: the Kd (in experiment [1]; in experiment [2]; in experiment [3]; at Obg-like ATPase 1; in experiment [4]) was > 30 µM (inactive) in each case.
With `COc1cc2ncnc(Nc3ccc(O)cc3)c2cc1OC` [WHI-P131], the Kd (in experiment [1]; in experiment [2]; in experiment [3]; at Obg-like ATPase 1; in experiment [4]) was > 30 µM (inactive) throughout.
Regarding `CNC(=O)c1ccc(Nc2ncc(C(F)(F)F)c(NCc3nccnc3N(C)S(C)(=O)=O)n2)cc1` [DEFACTINIB], the Kd (in experiment [1]; in experiment [2]; in experiment [3]; on Obg-like ATPase 1; in experiment [4]) was > 30 µM (inactive) in each case.
Regarding `O=S(=O)(c1cccc2c(O)nccc12)N1CCCNCC1` [HYDROXYFASUDIL], the Kd (in experiment [1]; in experiment [2]; in experiment [3]; on Obg-like ATPase 1; in experiment [4]) was > 30 µM (inactive) in each case.
For the compound `N#CCNC(=O)c1ccc(-c2ccnc(Nc3ccc(N4CCOCC4)cc3)n2)cc1` [MOMELOTINIB], the Kd (in experiment [1]; in experiment [2]; in experiment [3]; at Obg-like ATPase 1) was > 30 µM (inactive) in each case.
Regarding `C[C@@H]1COC(Nc2ccc3ncnc(Nc4ccc(OCc5nccs5)c(Cl)c4)c3c2)=N1` [VARLITINIB], the Kd (in experiment [1]; in experiment [2]; in experiment [3]; on Obg-like ATPase 1; in experiment [4]) was > 30 µM (inactive) throughout.
With `NC(=O)c1ccc(N(C(N)=O)c2c(F)cccc2F)nc1-c1ccc(F)cc1F` [VX-702], the Kd (in experiment [1]; in experiment [2]; in experiment [3]; at Obg-like ATPase 1; in experiment [4]) was > 30 µM (inactive) in each case.
Turning to `C=CC(=O)Nc1cc(Nc2nccc(-c3cn(C)c4ccccc34)n2)c(OC)cc1N(C)CCN(C)C` [OSIMERTINIB], the Kd (in experiment [1]; in experiment [2]; in experiment [3]; at Obg-like ATPase 1; in experiment [4]) was > 30 µM (inactive) in each case.
For the compound `COCCN1CCN(Cc2ccc(-c3n[nH]c4c3C(=O)c3c(NC(=O)NN5CCOCC5)cccc3-4)cc2)CC1` [RGB-286638], the Kd (in experiment [1]; in experiment [2]; in experiment [3]; at Obg-like ATPase 1; in experiment [4]) was > 30 µM (inactive) each time.
Turning to `Cn1c(=O)c(F)c(Nc2ccc(I)cc2F)c2c(=O)n(C[C@@H](O)CO)cnc21` [TAK-733], the Kd (in experiment [1]; in experiment [2]; in experiment [3]; on Obg-like ATPase 1; in experiment [4]) was > 30 µM (inactive) each time.
`COc1cc(Nc2ncc(F)c(Nc3ccc4c(n3)N(COP(=O)(O)O)C(=O)C(C)(C)O4)n2)cc(OC)c1OC` [FOSTAMATINIB]: the Kd in experiment [1] was > 30 µM (inactive); in experiment [2] it was > 30 µM (inactive); in experiment [3] it was > 30 µM (inactive); at Obg-like ATPase 1, > 30 µM (inactive); in experiment [4], 0.57 µM (active).
Turning to `C#Cc1cccc(Nc2ncnc3cc4c(cc23)OCCOCCOCCO4)c1` [ICOTINIB], the Kd (in experiment [1]; in experiment [2]; in experiment [3]; on Obg-like ATPase 1; in experiment [4]) was > 30 µM (inactive) in each case.
Turning to `Cc1cc(C(=O)Nc2cc(Oc3ccc4nc(NC(=O)C5CC5)cn4n3)ccc2C)n(C)n1` [TAK-593], the Kd (in experiment [1]; in experiment [2]; in experiment [3]; on Obg-like ATPase 1; in experiment [4]) was > 30 µM (inactive) each time.
As for `C=CCn1c(=O)c2cnc(Nc3ccc(N4CCN(C)CC4)cc3)nc2n1-c1cccc(C(C)(C)O)n1` [ADAVOSERTIB], the Kd (in experiment [1]; in experiment [3]; on Obg-like ATPase 1; in experiment [4]) was > 30 µM (inactive) each time.
Consider `NC[C@@](O)(c1ccc(Cl)cc1)c1ccc(-c2cn[nH]c2)cc1` [AT-13148], for which the Kd in experiment [1] is 0.17 µM (active); in experiment [2] it was > 30 µM (inactive); in experiment [3] it was > 30 µM (inactive); at Obg-like ATPase 1 it was > 30 µM (inactive); in experiment [4], > 30 µM (inactive).
Turning to `CCOc1ccn(-c2ccc(F)cc2)c(=O)c1C(=O)Nc1ccc(Oc2ccnc(N)c2Cl)c(F)c1` [BMS-777607], the Kd is > 30 µM (inactive) in experiment [1]; > 30 µM (inactive) in experiment [2]; > 30 µM (inactive) in experiment [3]; > 30 µM (inactive) on Obg-like ATPase 1; 0.301 µM in experiment [4].
For the compound `COc1cc(F)c(F)c(Nc2ccc(I)cc2F)c1NS(=O)(=O)C1(C[C@H](O)CO)CC1` [REFAMETINIB], the Kd is > 30 µM (inactive) in experiment [1]; 0.439 µM (active) in experiment [2]; > 30 µM (inactive) in experiment [3]; > 30 µM (inactive) on Obg-like ATPase 1; > 30 µM (inactive) in experiment [4].
